Here are results for three substances from publication PMC12906832, “Transgenic Tobacco Plants Expressing Synthetic Peptides: A Functional and Structural Analysis for Pathogen Resistance” (Plant Biotechnology Journal, 2025).

No end group written: not given here.

For data set [1], the system named is Xanthomonas campestris pv. vesicatoria, X. campestris pv. campestris, X. oryzae pv. oryzae, Pseudomonas syringae pv. tabaci. The note with it: 72 h.
Data set [2] can be described thus: Plant extract stability assay (RP-HPLC). It counts as in vitro ADME, Nicotiana tabacum. The note with it: tobacco leaf extract (20% v/v) containing plant proteases; 1 mg peptide in 20% v/v tobacco leaf extract in 10 mM phosphate buffer pH 7.4, 37°C, stopped with 1% TFA, RP-HPLC C18 peak integration, mean ± SEM n = 3. On the procedure: The stability of VR18 and KG18 in the presence of plant proteases present in plant leaf extract was monitored using a modified version of a previously reported protocol (Li et al. [2002]). Briefly, 1 g of 1‐month‐old tobacco leaf ( Nicotiana tabacum ) was crushed in liquid nitrogen, followed by extraction in 10 mM phosphate buffer (pH 7.4). The suspension was pelleted at 13500× g for 5 min, and the supernatant was collected. 1 mg of the respective peptide was added to a stock of 20% v/v plant extract in 10 mM phosphate buffer (pH 7.4) and incubated at 37°C. 100 μL of aliquots were withdrawn at appropriate time intervals, and the reaction was stopped using 1% trifluoroacetic acid (TFA). Plant extract (20% v/v) was used as a negative control. The aliquots were subjected to a LC‐20AT reverse phase HPLC system (SHIMADZU, Japan) equipped with a Phenomenix C18 column (250 × 10 mm, pore size 100 Å, particle size 5 μm) at room temperature, using acetonitrile and water with 0.1% TFA as the solvents. A flow rate of 1 mL/min was maintained. The percentage of peptide remaining in the plant extract at different time intervals was analysed by peak integration using […] software, and the area obtained was normalised with respect to the free peptide without the plant extract.

Another data set deals with HEK293 cells. The data set is described as follows: MTT cell viability assay. Format: cell-based, human. The conditions noted are these: 24 h, concentrations up to 4× MIC99%, triplicate. How it is done:
For details, please see section 1.2 of Supporting Information.
(§1) 1. Experimental Procedures
(§2) 1.1. Membrane permeabilization assay
(§3) Pseudomonas syringae pv. tabaci cells were grown till mid-logarithmic phase. The cells were […]
(§4) obtain a suspension containing 10^5 CFU/ml. 10µM of Propidium Iodide (Sigma Aldrich Co., St.
(§5) Louis, USA) was added to the cell suspension and incubated at room temperature, under shaking […]
fluorescence intensity was measured at 25 °C for 30 min at an excitation and emission wavelength of 535 nm and 617 nm respectively. After obtaining the fluorescence intensity of the stabilized cells, peptides were added at increasing concentrations, and the increase in fluorescence intensity was recorded. […]
(§6) HEK293 cell viability was monitored by MTT assay. […] Cell viability was then assessed by incubating the control and peptide treated cells using 100 µl of MTT (2mg/ml) for 3 h. The formazan crystals formed were dissolved in dimethyl sulfoxide (DMSO) and absorbance at 570 nm was recorded using SpectraMax M3 (Softmax Pro 6.3) multiplate reader. […] Cell viability was calculated using the equation: […]
1.3. […] A readseq program, (http://iubio.bio.indiana.edu/soft/molbio/readseq/) is used by the server that reads the protein sequences in standard formats like EMBL, FASTA, GCG or plain text format (Saha & Raghava, 2006). […]
On the technique in general: Formazan colour is commonly taken as a measure of viable cells.

The test system of data set [3] is Pseudomonas syringae pv. tabaci cells. Briefly: Membrane permeabilization assay (propidium iodide uptake). It counts as cell-based. The conditions noted are these: within 30 min of treatment, 10 µM PI, 10 mM phosphate buffer pH 7.4, normalised to Polymyxin B, n = 3. On the procedure:
Pseudomonas syringae pv. tabaci cells were prepared and incubated with Propidium Iodide. The increase in fluorescence intensity was checked upon the addition of peptides. For details, please see section 1.1 of Supporting Information.
as §1, §2, §3, §4, §5
fluorescence intensity was measured at 25 °C for 30 min at an excitation and emission wavelength of 535 nm and 617 nm respectively. After obtaining the fluorescence intensity of the stabilized cells, peptides were added at increasing concentrations, and the increase in fluorescence intensity was recorded. Normalization was done using measurement of cells treated with Polymyxin B that served as control. […]
as §6

Turning to KNKSRVARGWGRKCPLFG [KG18], in data set [1], the IC50 fell in the range of 2.75 to 5.5 µM and the “minimal inhibitory concentration (MIC99%)” value lay in the range of 3 to 10 µM. In data set [2], this substance gave a half-life of more than 1 h. The “cytotoxic effect on HEK 293 cells (MTT)” value in the data set with HEK293 cells was “no toxicity”.

As to Polymyxin B, in data set [3], the “propidium iodide (PI) uptake” value was “maximum PI uptake”.

Consider VARGWGRKCPLFGKNKSR [VR18], for which, in data set [1], the IC50 fell in the range of 1.5 to 4.25 µM and the “minimal inhibitory concentration (MIC99%)” value lay within 3 to 10 µM. The half-life in data set [2] is more than 1 h. Also, the “cytotoxic effect on HEK 293 cells (MTT)” value in the data set with HEK293 cells is reported as “no toxicity”.

For orientation: IC50 means the point on the concentration scale where inhibition reaches its midpoint. A high value points to lower potency. In general, half-life refers to the time needed for the level to fall by half in the phase considered. Read a high half-life as slow decline.
